In ChEMBL document CHEMBL1201862, “PubChem BioAssay data set” (2004):
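Tested at 5 concentrations; 48 h exposure; 96-well plates; endpoints linearly interpolated, else capped at highest concentration. The concentration for 50% growth inhibition is given as GI50.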 Calls of active or inactive are those of the source. Cut-off read from the data, not from the text of the source: active = GI50 up to about 1.1 µM and inactive = higher.

Experiments:
Experiment in all cases: DTP human tumour cell line panel, 48 h
786-0 = tested on: 786-0
CCRF-CEM = tested on: CCRF-CEM
HCC 2998 = tested on: HCC 2998
HOP-62 = tested on: HOP-62
HT-29 = tested on: HT-29
Hs-578T = tested on: Hs-578T
KM12 = tested on: KM12
MDA-MB-231 = tested on: MDA-MB-231
MDA-MB-435 = tested on: MDA-MB-435
NCI-H226 = tested on: NCI-H226
NCI/ADR-RES = tested on: NCI/ADR-RES
OVCAR-3 = tested on: OVCAR-3
OVCAR-5 = tested on: OVCAR-5
OVCAR-8 = tested on: OVCAR-8
SK-MEL-28 = tested on: SK-MEL-28
SK-MEL-5 = tested on: SK-MEL-5
SK-OV-3 = tested on: SK-OV-3
SNB-19 = tested on: SNB-19
SR = tested on: SR
U-251 = tested on: U-251

| SMILES | GI50 (786-0) | GI50 (CCRF-CEM) | GI50 (HCC 2998) | GI50 (HOP-62) | GI50 (HT-29) | GI50 (Hs-578T) | GI50 (KM12) | GI50 (MDA-MB-231) | GI50 (MDA-MB-435) | GI50 (NCI-H226) | GI50 (NCI/ADR-RES) | GI50 (OVCAR-3) | GI50 (OVCAR-5) | GI50 (OVCAR-8) | GI50 (SK-MEL-28) | GI50 (SK-MEL-5) | GI50 (SK-OV-3) | GI50 (SNB-19) | GI50 (SR) | GI50 (U-251) |
| --- | --- | --- | --- | --- | --- | --- | --- | --- | --- | --- | --- | --- | --- | --- | --- | --- | --- | --- | --- | --- |
| N#C/C(=C\c1cc(O)c(O)c(O)c1)C(N)=O | 54.6 µM (inactive) | 38.3 µM (inactive) | > 100 µM (inactive) | > 87.3 µM (inactive) | > 92.7 µM (inactive) | > 100 µM (inactive) | > 90.4 µM (inactive) | > 66.5 µM (inactive) | > 55.7 µM (inactive) | > 100 µM (inactive) | > 93.1 µM (inactive) | > 72.8 µM (inactive) | > 100 µM (inactive) | > 100 µM (inactive) | > 100 µM (inactive) | > 69.5 µM (inactive) | > 100 µM (inactive) | > 100 µM (inactive) | > 47.5 µM (inactive) | > 87.5 µM (inactive) |
| CSc1nc(SC)c2c(CN=[N+]=[N-])c(Br)n(Cc3ccccc3)c2n1 | > 100 µM (inactive) | 72.6 µM (inactive) | > 100 µM (inactive) | 92.3 µM (inactive) | 23 µM (inactive) | 53.1 µM (inactive) | > 100 µM (inactive) | 52.7 µM (inactive) | 55.7 µM (inactive) | 83.8 µM (inactive) | > 100 µM (inactive) | > 100 µM (inactive) | > 100 µM (inactive) | > 100 µM (inactive) | > 100 µM (inactive) | > 100 µM (inactive) | 24.1 µM (inactive) | > 100 µM (inactive) | 26 µM (inactive) | 71.9 µM (inactive) |
| Cc1ccc(/C=N/Nc2cc(C)c3cccc(C)c3n2)s1 | 2.74 µM (inactive) | 4.43 µM (inactive) | 6.38 µM (inactive) | 11.8 µM (inactive) | 2.86 µM (inactive) | 13.9 µM (inactive) | 7.31 µM (inactive) | > 10 µM (inactive) | 7.14 µM (inactive) | 9.02 µM (inactive) | 2.99 µM (inactive) | 8.02 µM (inactive) | 9.91 µM (inactive) | 10.4 µM (inactive) | 22.3 µM (inactive) | 9.86 µM (inactive) | 16.4 µM (inactive) | 26.5 µM (inactive) | 2.71 µM (inactive) | 10.6 µM (inactive) |
| C#CCCOC(=O)CC1=C(C)/C(=C/c2ccc([S+](C)[O-])cc2)c2ccc(F)cc21 (stereo not given) | 19.8 µM (inactive) | 15 µM (inactive) | 10.4 µM (inactive) | 27.2 µM (inactive) |  | 13.5 µM (inactive) | 10.8 µM (inactive) | 8.49 µM (inactive) | 4.67 µM (inactive) | 19 µM (inactive) | 13.3 µM (inactive) | 15.4 µM (inactive) | 34.2 µM (inactive) | 19.7 µM (inactive) |  | 12.3 µM (inactive) | 37 µM (inactive) | 13.6 µM (inactive) | 3.47 µM (inactive) | 15 µM (inactive) |
| CCn1c2nc(=O)n(CCCCCCCCSC(c3ccccc3)(c3ccccc3)c3ccccc3)c(=O)c-2nc2ccccc21 | 14.6 µM (inactive) | 1.43 µM (inactive) | 2.67 µM (inactive) | 27.5 µM (inactive) | 2.74 µM (inactive) | 3.33 µM (inactive) | 9.91 µM (inactive) | 45.4 µM (inactive) | 6.12 µM (inactive) | > 100 µM (inactive) | > 100 µM (inactive) | 6.7 µM (inactive) | > 100 µM (inactive) | 43.6 µM (inactive) | 53.3 µM (inactive) | 3.44 µM (inactive) | 82.8 µM (inactive) |  | 2.61 µM (inactive) | 19 µM (inactive) |
| C/C(=N\NC(=S)N1CCC1)c1ccccn1 | < 0.0239 µM (active) | 0.01 µM (active) | 0.374 µM (active) | 0.0181 µM (active) | 0.01 µM (active) | 4.06 µM (inactive) | 0.0287 µM (active) | 0.0155 µM (active) | 0.0264 µM (active) | 0.293 µM (active) | 0.00332 µM (active) | 0.01 µM (active) |  | 0.01 µM (active) | 0.425 µM (active) | < 0.0196 µM (active) | < 0.0131 µM (active) | 0.261 µM (active) | 0.01 µM (active) | 0.01 µM (active) |
| CN(/N=C\c1ccc2ccccc2c1)C1=NCCCCN1 | 15.8 µM (inactive) | 23.3 µM (inactive) | 14.5 µM (inactive) | 19.2 µM (inactive) | 16.1 µM (inactive) | 20.6 µM (inactive) | 20.9 µM (inactive) | 21.9 µM (inactive) | 18.2 µM (inactive) | 35.3 µM (inactive) | 26.7 µM (inactive) | 36.5 µM (inactive) | 36.5 µM (inactive) | 29.8 µM (inactive) | 15.2 µM (inactive) | 13.8 µM (inactive) | 22.1 µM (inactive) |  | 21.2 µM (inactive) | 18 µM (inactive) |
| O=C(CC(C(=O)c1cccs1)c1ccsc1)c1ccccc1 (stereo not given) | > 100 µM (inactive) | > 100 µM (inactive) | > 100 µM (inactive) | > 100 µM (inactive) | > 100 µM (inactive) | > 100 µM (inactive) | 38.9 µM (inactive) | 17.5 µM (inactive) | 31.4 µM (inactive) | > 100 µM (inactive) | 25.1 µM (inactive) | > 100 µM (inactive) | > 100 µM (inactive) | > 100 µM (inactive) | > 100 µM (inactive) | 76.9 µM (inactive) | > 100 µM (inactive) |  | 66.1 µM (inactive) | > 100 µM (inactive) |
| CN(CCCN(C)Cc1ccc(Cl)c(Cl)c1)CCN1CCCC1 | 13.5 µM (inactive) | 7.11 µM (inactive) | 3.5 µM (inactive) | 26.5 µM (inactive) | 4.13 µM (inactive) | 17.7 µM (inactive) | 30.7 µM (inactive) | 13.1 µM (inactive) | 3.33 µM (inactive) | 21.2 µM (inactive) | > 66.5 µM (inactive) | 60.3 µM (inactive) | 28.7 µM (inactive) | 29.5 µM (inactive) | 1.93 µM (inactive) | 6.92 µM (inactive) | 75.3 µM (inactive) | 22.5 µM (inactive) | 8.45 µM (inactive) | 16.8 µM (inactive) |
| CC(=O)C1=CC=C/C1=N\Nc1ccccc1 | 4.31 µM (inactive) | 2.94 µM (inactive) | 6.07 µM (inactive) | 20.8 µM (inactive) | 3.83 µM (inactive) | 4.48 µM (inactive) | 4.38 µM (inactive) | 10 µM (inactive) | 13.1 µM (inactive) | 17.3 µM (inactive) | 5.28 µM (inactive) | 3.22 µM (inactive) | 7 µM (inactive) | 9.73 µM (inactive) | 14 µM (inactive) | 15.6 µM (inactive) | 16.6 µM (inactive) | 21.1 µM (inactive) | 0.543 µM (active) | 2.97 µM (inactive) |
| COc1ccc2c(c1O)[C@@]13C=C(O)C(=O)C=C1[C@@H](C2)N(C)CC3 | 75 µM (inactive) | 43.8 µM (inactive) | > 100 µM (inactive) | 49.4 µM (inactive) | 31.6 µM (inactive) | 59.3 µM (inactive) | 52.1 µM (inactive) | > 100 µM (inactive) | 40.6 µM (inactive) | 56.9 µM (inactive) | 51.9 µM (inactive) | 26.9 µM (inactive) | > 100 µM (inactive) | 51.9 µM (inactive) | 87.7 µM (inactive) | 60.3 µM (inactive) | > 100 µM (inactive) | 63.1 µM (inactive) | 42.7 µM (inactive) | 86.1 µM (inactive) |
| CCOC(=O)c1c(SC(=O)c2ccc(C(C)(C)C)cc2)n(-c2ccccc2)c(=S)n(-c2ccccc2)c1=O | > 100 µM (inactive) | 29.7 µM (inactive) | > 100 µM (inactive) | > 100 µM (inactive) | > 100 µM (inactive) | > 100 µM (inactive) | > 100 µM (inactive) | > 100 µM (inactive) | > 100 µM (inactive) | > 100 µM (inactive) | > 100 µM (inactive) | > 100 µM (inactive) | > 100 µM (inactive) | > 100 µM (inactive) | > 100 µM (inactive) |  | > 100 µM (inactive) | > 100 µM (inactive) | > 100 µM (inactive) | > 100 µM (inactive) |
| OC1c2ccccc2CCC1CN1CCN(CCOC(c2ccc(F)cc2)c2ccc(F)cc2)CC1 (stereo not given) | 11.7 µM (inactive) | 0.145 µM (active) | 4.79 µM (inactive) | 20.5 µM (inactive) |  | 17.9 µM (inactive) | 20.5 µM (inactive) | 13.8 µM (inactive) | 17.5 µM (inactive) | 13.6 µM (inactive) | 11.2 µM (inactive) | 17.4 µM (inactive) |  | 14.3 µM (inactive) | 13.3 µM (inactive) | 4.79 µM (inactive) | 94.8 µM (inactive) | 31.6 µM (inactive) | 2.53 µM (inactive) | 13.8 µM (inactive) |
| Cc1ccc(Nc2nc3[nH]ccc3c(=O)[nH]2)cc1 | > 100 µM (inactive) | > 100 µM (inactive) | 71.6 µM (inactive) | > 100 µM (inactive) | 61.9 µM (inactive) | 35.8 µM (inactive) | > 100 µM (inactive) | 52.7 µM (inactive) | > 100 µM (inactive) | > 100 µM (inactive) | > 100 µM (inactive) | 33 µM (inactive) | > 100 µM (inactive) | > 100 µM (inactive) |  | > 100 µM (inactive) | > 100 µM (inactive) | 96.2 µM (inactive) | > 100 µM (inactive) | > 100 µM (inactive) |
